Test results reported in patent publication US20250281465A1, “MOLECULES THAT ENHANCE EXTRACELLULAR VESICLE RELEASE” (priority 2022, published 2025).

What was measured:
mBMDCs [1] = assay: RNA sequencing analysis of mBMDCs; assay type: cell-based, mouse; settings: 5 μM
Method: FIGS. 2A-2C. RNA sequencing analysis of mBMDC treated with compound #634, (A) mBMDCs were treated with compound #634 (5 μM) or Veh (0.1% DMSO) or in triplicate for 5 hours. RNA was isolated, and RNA-seq analysis was performed by UC San Diego IGM Genomic Center. Data were analyzed by UC San Diego Moore Cancer Center Biostatistics and Bioinformatics Shared Resources. […] (B) Kyoto Encyclopedia of Genes and Genomes (KEGG) pathway analysis. Normalized enrichment scores (NES) of the top 10 positively and negatively enriched genes sets (FDR≤0.05 and fold change >2).
mBMDCs were treated with compound 634 (5 μM) or Veh (0.1% DMSO) in triplicate for 5 hours. RNA was isolated, and RNA-seq analysis was performed. […] Data were analyzed by UC San Diego Moore Cancer Center Biostatistics and Bioinformatics Shared Resources.
RNA-seq and Data Analysis. mBMDCs (1.5×10^6 cells, 10^6 cells/mL×1.5 mL) were treated with Veh (0.1% DMSO), 634 (5 μM) for 5 hours, and then the total RNA was isolated using Quick-RNA™ Miniprep Kit (Zymo Research). Each group has triplicates. RNA-seq was performed by the sequencing core at the UC San Diego institute for Genomic Medicine Genomics Center. Briefly, paired-ended sequencing was performed on the Illumina NovaSeq 6000. Reads were aligned to the mouse reference genome (mm10) using STAR (ver. 2.5.1), and mRNA expression levels were calculated per gene using RSEM (ver. 1.3.0). Genes were filtered if more than 24 out of 27 of the samples (including compound 634, there were a total of 8 testing compounds and DMSO in triplicated samples) had counts <10. Raw counts were then quantile normalized and used as expression values in the subsequent analysis. Also, if mouse gene IDs corresponded with multiple human genes, the genes with highest variance in expression values were kept (Miller et al., 2011). A total of 11759 genes remained. Limma (liner models for microarray, using Rlimma package) trend tests were used for differential analysis based on log 2 expression values. The Benjamini-Hochberg procedure was applied to control the false discovery rate (FDR). […] RNA-seq data have been deposited in ArrayExpress, https://www.ebi.ac.uk/arrayexpress/(accession no. E-MTAB-12377) (Hayashi, 2022).

mBMDCs [2] = assay: Cell viability / cytotoxicity in mBMDCs (MTT); assay type: cell-based, mouse; settings: 10 μM
Method: FIGS. 30A-30B. […] After 48 hours incubation, cell viability was determined by MTT assay.
mBMDCs (10^5 cells/200 μL/well) were treated with 10 and 5 μM of a test compound in 96-well plates overnight. After 18 hours of drug treatment, MTT (0.5 mg/ml) was added to each well. The cells were lysed after 6-8 hours incubation, and absorbance values at 570 and 650 nm were measured. PrestoBlue reagent (#A13261, Thermo Fisher Scientific) was used for cell viability assay in CD63 HTS as described earlier.
Cell viability assay. mBMDCs (2×10^6 cells/200 μL/well in RPMI1640 supplemented with dialyzed 10% FBS, or 1.5×10^6 cells/200 μL/well in RPMI1640 supplemented with 10% exosome depleted FBS) were treated with 10 μM of each test compound in 96-well plates. After 46-48 hours of compound treatment, MTT (0.5 mg/mL) was added to each well. The cells were lysed after overnight incubation, and absorbance values at 570 and 650 nm were measured.

[3] = tested on: CD63-Tluc-CD9-EmGFP THP-1 reporter cells; assay: CD63 Tluc-CD9 EmGFP THP-1 reporter cell assay (EV/exosome release); assay type: cell-based, human; settings: 48 hours incubation
Method: All these analogs were evaluated for induction of IL-12 cytokine at 10 μM, followed by dose response IL-12 induction for selected analogs. These analogs were also evaluated for exosome release by quantitating EV release in the supernatant post 48 hours incubation with CD63-Tluc-CD9-EmGFP THP-1 reporter cells.
In the HTS using CD63-Tluc-CD9EmGFP reporter cells (CD63 HTS), PMA (10 ng/ml) was used as a positive control (Shpigelman et al., 2021) and 0.5% DMSO was used as negative control (vehicle, Veh). Briefly, the harvested cells were resuspended in assay media containing 10% exosome-depleted […] (#A2720801, Thermo Fisher Scientific) and plated at 2×10^5 cells/mL (50 μL/well of 384-well plates) (#3674, Corning). Test compounds were added at a final concentration of 10 μM to cells and incubated for 48 hours at 37° C. Subsequently, the plate was centrifuged, supernatant (25 μL) was transferred, and chemiluminescent was measured as recombinant luciferase activity (RLU) after 10 minutes incubation with TurboLuc assay reagent (TurboLuc™ One-Step Glow Assay kit, Thermo Fisher Scientific). The response that measures activation and subsequent release of EVs was calculated using the following formula; % response=100×(compound RLU−average Veh RLU)/(average PMA RLU−average Veh RLU). The viability of cells was assessed using PrestoBlue reagent (Thermo Fisher Scientific). Briefly, PrestoBlue reagent (2.5 μl) was added to the remaining cells and incubated for 30 minutes at room temperature, followed by fluorescence readout at (Ex 560 nm/Em 590 nm) which was normalized to fluorescence data of the Veh wells within the plate to obtain “% viability” calculated as 100×(compound fluorescence/average Veh fluorescence).
CD63 Tluc-CD9 EmGFP THP-1 reporter cell assay. CD63 Tluc CD9 EmGFP THP-1 reporter cell (designated as CD63 Tluc reporter cells) were incubated with 10 μM test compounds, ION (1 μM), or 0.5% DMSO (negative control) in the RPMI 1640 supplemented with exosome-depleted FBS at 5×10^4 cells in 200 μL/well for a 96-well plate for 48 hours at 37° C. Subsequently, the plate was centrifuged, the supernatant was transferred, and chemiluminescence was measured by TurboLuc™ Luciferase One-Step Glow Assay Kit. The response that measures activation and subsequent release of EVs was calculated using the following formula; % response=100×(compound RLU−average Veh RLU)/(average PMA RLU−average Veh RLU).

[4] = 5 hours, FDR≤0.05 and fold change >2

Row | Structure (SMILES) | FC Cdhr1 (mBMDCs [1]; 5 hours vs Veh, down-regulated) | FC Hrh1 (mBMDCs [1]; 5 hours vs Veh, down-regulated) | FC Cdh1 (mBMDCs [1]; 5 hours vs Veh, up-regulated) | FC Htr7 (mBMDCs [1]; 5 hours vs Veh, up-regulated) | FC Oit3 (mBMDCs [1]; 5 hours vs Veh, up-regulated) | FC Ppm1e (mBMDCs [1]; 5 hours vs Veh, up-regulated) | FC Sla2 (mBMDCs [1]; 5 hours vs Veh, up-regulated) | down-regulated genes (mBMDCs [1]; [4]) | genes with modulated expression compared to Veh (mBMDCs [1]; [4]) | up-regulated genes (mBMDCs [1]; [4]) | toxicity to mBMDC (mBMDCs [2]) | exosome (EV) release in CD63 reporter THP-1 cells [3]
1 | CCOC(=O)c1c(NS(=O)(=O)c2cccc3nsnc23)sc(C)c1C [compound 634, Ethyl 2-(benzo[c][1,2,5]thiadiazole-4-sulfonamido)-4,5-dimethylthiophene-3-carboxylate] | 0.40 | 0.46 | 2.61 | 2.38 | 2.02 | 2.77 | 2.04 | 17 genes | 103 genes | 86 genes | non-toxic | –
2 | CCOC(=O)c1c(NS(=O)(=O)c2cccc3c2N=S=N3)sc(C)c1C [#634, ethyl 2-(benzo[c][1,2,5]thiadiazole-4-sulfonamido)-4,5-dimethylthiophene-3-carboxylate] | – | – | – | – | – | – | – | – | – | – | – | enhanced exosome release
